The numbers were not newly measured in US20240158423A1, “TWO-COMPARTMENT BIPOLAR MEMBRANE ELECTRODIALYSIS OF SALTS OF AMINO ACIDS” (MONSANTO TECHNOLOGY LLC, priority 2021, published 2024), which cites them from elsewhere.

Like-named read-outs stand apart in the source and are kept apart here.

As to `O=C(O)CNCC(=O)O` [IDA, iminodiacetic acid], the solubility entry runs as follows: (in water at a temperature of 10° C.) “less than 4 g IDA/100 g H2O”; (in water at a temperature of 60° C.) “approximately 14 g IDA/100 g H2O”.
